Source: US9708323B2, “Tricyclic compounds as alpha-7 nicotinic acetylcholine receptor ligands” (BRISTOL-MYERS SQUIBB COMPANY, priority 2014, dated 2017)
Like-named read-outs stand apart in the source and are kept apart here.

Biological target: T1, α-7 nicotinic ACh receptor ion channel expressed in HEK 293 cells (Rattus norvegicus, UniProt Q05941)
T1 construct: expressed in transfected cells
Test: Ca2+-sensitive, fluorescence-based assay for α-7 nicotinic acetylcholine receptor channel function in mammalian cells (FLIPR)
Format: cell-based
Details: read-out: FLIPR α7 (EC50)
Description: II) A Ca^2+-Sensitive, Fluorescence-Based Assay α-7 for Nicotinic Acetylcholine Receptor Channel Function in Mammalian Cells (“FLIPR”). Summary:
Lead compounds are evaluated for agonist activity at α-7, α3β4, α4αβ2, and α1β1δ1ε sub-types of nicotinic ACh receptor ion channels expressed in mammalian HEK 293 cells. Agonist potency and efficacy values are determined from kinetic fluorescence Ca^2+ influx measurements made using a 384 well FLIPR (Fluorescence Image Plate Reader). The utility of fluorescent indicators for measuring changes in intracellular divalent cation concentrations, particularly Ca^2+, for drug discovery endeavors is well documented (Rudiger, R., et al., Nature Reviews, 2003, 4:579-586; Gonzalez J. E., et al., Receptors and Channels, 2002, 8:283-295). In this assay, channel expressing HEK cell lines seeded in 384 well assay plates are loaded with a membrane permeant fluorescent Ca^2+ indicator dye, whose 510 nm green emission signal increases in response to elevation of intracellular Ca^2+ concentration. The basal fluorescence from the cells is monitored in real time, followed by the acute addition of test compounds. If the compound is an agonist at any of the non-selective cation channels, the latter open and allow the movement of extracellular Ca^2+ ions into the cell cytoplasm, where they bind to the Ca^2+ indicator dye, and produce an increase in fluorescence output signal, which is detected by a cooled CCD imaging camera.
Reagents: The acetomethoxy (AM) ester of the Ca^2+ indicator dye Fluo-4 was obtained from InVitrogen, (Carlsbad, Calif.). Acetylcholine and all buffer constituents were purchased from Sigma Chemical Company, St. Louis, Mo. G418 and Minimal Essential Medium were purchased from InVitrogen Life Technologies, Carlsbad, Calif. Fetal bovine serum was purchased from (InVitrogen, Carlsbad, Calif.).
HEK-293 cells were grown in Minimal Essential Medium containing 10% (v/v) fetal bovine serum at 37° C. in a 5% CO2 incubator. HEK-293 cells stably expressing the ion channels were grown in the same medium with the addition of 500 μg/ml G418.
HEK-293 cells expressing the ion channels of interest were plated in 384 well, black-walled, clear-bottomed, poly-D-lysine coated plates at a density of ˜20,000 cells/well in 20 μl of Minimal Essential Medium containing 10% (v/v) fetal bovine serum and incubated for 2 days at 29° C. in a 5% CO2 incubator. Prior to assay, cells were loaded with the Fluo-4 AM ester. Cell loading was accomplished by removing the culture medium and replacing it with 30 μl/well of the AM ester of the dye (5 μM) mixed with Hanks Balanced Salt Solution (#14175-095) containing 20 mM HEPES, 2.5 mM probenecid, 0.5 mM CaCl2, 1 mM MgCl2 and 10 μM atropine. Dye loading was allowed to proceed for 90 minutes at room temperature at which time the dye loading solution was removed and replaced with 40 μl/well of Hanks buffer. Cells loaded with dye were loaded onto a FLIPR384 (Molecular Devices, Sunnyvale, Calif.). Fluo-4 dye was excited using the 488 nm line of an argon laser. Emission was filtered using a 540+/−30 nm bandpass filter. For evaluation of the effects of test compounds using the Ca^2+ flux assay, compounds to be tested were provided in assay ready plates. For nicotinic receptor ion channel expressing cells, the assay was initiated by the addition of 20 μl/well of Hanks buffer containing test compounds. For all assays, data were collected at 1 Hz for 10 seconds (baseline), at which time the compound containing stimulus buffers are added, and further measurements collected at 0.33 Hz for 3 min.
The statistical robustness of the nicotinic receptor Ca^2+ flux assays is determined from blanks and totals wells. The totals wells define maximal channel activation for each compound test plate (Maximum efficacious dose of acetylcholine), and the blanks wells which contain matched DMSO only, define zero channel activation. […]

T1 sequence (Q05941 23-502): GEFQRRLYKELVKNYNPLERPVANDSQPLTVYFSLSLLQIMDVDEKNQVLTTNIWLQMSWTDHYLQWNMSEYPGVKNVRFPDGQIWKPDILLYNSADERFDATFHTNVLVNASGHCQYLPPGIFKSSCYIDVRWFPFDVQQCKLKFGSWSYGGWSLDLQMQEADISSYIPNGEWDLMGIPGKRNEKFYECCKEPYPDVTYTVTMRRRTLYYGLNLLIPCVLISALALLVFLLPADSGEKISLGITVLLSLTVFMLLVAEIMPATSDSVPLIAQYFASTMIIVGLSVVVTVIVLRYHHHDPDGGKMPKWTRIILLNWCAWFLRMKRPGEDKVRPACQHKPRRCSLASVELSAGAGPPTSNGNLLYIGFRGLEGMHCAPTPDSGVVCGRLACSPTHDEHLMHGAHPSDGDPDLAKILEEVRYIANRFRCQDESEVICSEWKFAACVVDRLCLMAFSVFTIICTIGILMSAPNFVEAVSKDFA

Structure (SMILES)	EC50 (Table 3, agonist Ca2+ flux) [nM]	further results
O=C(c1ccc(Cl)cc1)N1C[C@@H]2C[N@@]3CC[C@@H]2[C@@H]1C3 [Example 112, (4-chlorophenyl)((3S,3aS,6R,7aR)-hexahydro-3,6-methanopyrrolo[2,3-c]pyridin-1(2H)-yl)methanone]	> 100000	–
O=C(c1cc2ccccc2o1)N1C[C@@H]2C[N@@]3CC[C@@H]2[C@@H]1C3 [Example 113, benzofuran-2-yl((3S,3aS,6R,7aR)-hexahydro-3,6-methanopyrrolo[2,3-c]pyridin-1(2H)-yl)methanone]	> 100000	–
O=C(c1n[nH]c2ccccc12)N1CC2CCN3CCC2C1C3 (stereo not shown) [Example 114, (hexahydro-1H-1,6-methanopyrrolo[3,4-d]azepin-2(7H)-yl)(1H-indazol-3-yl)methanone]	–	EC50 (Table 4, agonist Ca2+ flux): 470 nM
O=C(c1n[nH]c2ccccc12)N1C2CC3CC1CN(C3)C2 [Example 115, 1,4-diazaadamantan-4-yl(1H-indazol-3-yl)methanone]	–	EC50 (Table 5, agonist Ca2+ flux): 73 nM
